Patent US10973920B2, “Saccharide derivative of a toxic payload and antibody conjugates thereof” (priority 2014, dated 2021)
Several values for one entry are separate records, joined by “and”; a condition that tells them apart may be missing. Equal values may be shown once. Where a SMILES comes first, the peptide text is derived from it. [ ]: non-standard residue; d: D form. The star is where a group is joined. X1 = C[C@@H](N*)[C@@H](O[C@@H]1O[C@H](CO)[C@H](O)[C@H](O)[C@H]1O)c1ccccc1; Dolaproine = CO[C@@H]([C@@H]1CCCN1)[C@@H](C)C(=O)O; Dil = CC[C@H](C)[C@H](NC)[C@@H](CC(=O)O)OC; X2 = C[C@@H](N*)[C@@H](O)c1ccccc1; NMeV = CN[C@H](C(=O)O)C(C)C

System: cancer cells (SKOV-3 and HSC-2)
Assay: Cytotoxicity to cancer cells, PrestoBlue cell viability, 96 h
Details: for IC50: concentration wherein cancer cell viability falls to 50%, cell line not given
Method: Human ovarian cancer cell line SKOV-3 (ATCC, Manassas, Va., USA) and head-and-neck squamous cell carcinoma cell line HSC-2 (Japanese Collection of Research Bioresources, Osaka, Japan) were grown according to the suppliers' recommendations. Log phase cultures were collected and cells were seeded onto 96-well plates and incubated for 24 h. Serial dilutions of test molecules were added to cells and cultures were incubated further for 96 h. Cell viability was evaluated using PrestoBlue cell viability reagent (Life Technologies, Carlsbad, Calif., USA) according to the manufacturer's instructions. Cells were incubated for 2 h, and dye reduction was measured by absorbance at 570 nm. The compounds were assayed 1-2 times in triplicate.
The results are expressed in Table 1 as IC50 values.

| Compound | IC50 | Cytotoxicity (in words) (concentrations up to 100 nM) |
| --- | --- | --- |
| CC[C@H](C)[C@@H]([C@@H](CC(=O)N1CCC[C@H]1[C@H](OC)[C@@H](C)C(=O)N[C@H](C)[C@@H](O)c1ccccc1)OC)N(C)C(=O)[C@@H](NC(=O)[C@@H](NC)C(C)C)C(C)C [MMAE, monomethylauristatin E] (H-[NMeV]V[Dil][Dolaproine]-X2) | ~10 nM and 10 nM | – |
| CC[C@H](C)[C@@H]([C@@H](CC(=O)N1CCC[C@H]1[C@H](OC)[C@@H](C)C(=O)N[C@H](C)[C@@H](O[C@@H]1O[C@H](CO)[C@H](O)[C@H](O)[C@H]1O)c1ccccc1)OC)N(C)C(=O)[C@@H](NC(=O)[C@@H](NC)C(C)C)C(C)C [MMAG, O-β-D-galactopyranosylmonomethylauristatin E] (H-[NMeV]V[Dil][Dolaproine]-X1) | > 100 nM | relatively non-toxic |
